Source: publication PMC8287724, “Reducing Auditory Nerve Excitability by Acute Antagonism of Ca^2+-Permeable AMPA Receptors” (Frontiers in Synaptic Neuroscience, 2021)

Biological target: T1, M3 acetylcholine GPCR (Homo sapiens, UniProt P20309)
T1 construct: host or cells: CHO cells
Experiment: Radioligand binding assay, M3 receptor (transfected CHO cells)
Conditions: antagonist 1 μM
Method: Binding assays were conducted to evaluate the affinity of test compounds IEM-1460 and IEM-1925 (Eurofins Scientific, Inc.) for 15 targets: the human alpha-1 adrenergic (A1) receptor, histaminergic (H)-2 and−3 receptors, and muscarinic acetylcholine receptors-1 to−5 in transfected CHO cells by radioligand binding. The neuronal α4β2 and neuronal α7 cholinergic acetylcholine receptors were tested in transfected SH-SY5Y cells. The histaminergic-1 and−4 receptors were tested in transfected HEK-293 cells. Ion channel testing for AMPA and N-methyl-D-aspartate (NMDA) was performed in cells from the rat cerebral cortex. […] Non-specific binding was determined in the presence of 1 μM of DCPX. […] The filters were dried and then counted for radioactivity in a scintillation counter (Topcount, Packard) using a scintillation cocktail (Microscint 0, Packard). The results are expressed as a percent inhibition of the control radioligand specific binding: 100-[(measured specific binding)/(control specific binding) × 100]. […]
We tested the metabolic stability of the compounds with in vitro liver microsome stability assays (Table 1, right). […] We evaluated the compounds for potential toxicity with assays that test for inhibition of off-target ion channels and receptors. […]

T1 sequence (P20309 whole entry): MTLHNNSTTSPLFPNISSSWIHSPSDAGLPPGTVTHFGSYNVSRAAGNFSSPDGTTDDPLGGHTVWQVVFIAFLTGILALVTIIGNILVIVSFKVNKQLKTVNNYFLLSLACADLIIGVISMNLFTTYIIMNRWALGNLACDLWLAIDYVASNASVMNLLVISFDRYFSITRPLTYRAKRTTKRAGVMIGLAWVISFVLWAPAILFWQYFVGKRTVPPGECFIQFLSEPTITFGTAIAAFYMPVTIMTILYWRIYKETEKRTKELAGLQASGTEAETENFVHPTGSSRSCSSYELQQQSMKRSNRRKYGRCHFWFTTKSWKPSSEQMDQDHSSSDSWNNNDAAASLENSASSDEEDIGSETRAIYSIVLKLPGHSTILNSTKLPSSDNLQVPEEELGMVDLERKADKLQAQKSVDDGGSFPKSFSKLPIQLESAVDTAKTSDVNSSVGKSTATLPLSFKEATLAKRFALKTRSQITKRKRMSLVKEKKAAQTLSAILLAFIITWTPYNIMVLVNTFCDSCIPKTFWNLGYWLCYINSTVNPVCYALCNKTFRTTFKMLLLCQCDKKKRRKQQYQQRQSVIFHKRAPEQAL

Row | Structure (SMILES) | Mean% inhibition (N = 2) of radioligand binding [%]
1 | C[N+](C)(C)CCCCCNCC12CC3CC(CC(C3)C1)C2 [IEM-1460] | 15
2 | NCCCCCNC1(c2ccccc2)CCCCC1 [IEM-1925] | <5
